Assay results published in patent US11919902B2, “Aryl-bipyridine amine derivatives as phosphatidylinositol phosphate kinase inhibitors” (HiberCell, Inc., priority 2017, dated 2024).

Key:
GST tagged PIP4KtypeIIB = target: T1, GST tagged PIP4KtypeIIB (Homo sapiens, UniProt P78356); test: Trans-FI P kinase assay PIP4K2B (PIP4KtypeIIB inhibition assay); format: biochemical; conditions: Table 4; compounds listed under IC50 range headings; 100 uM GTP, 5 nM PIP4KIIB; read-out: Trans-FI P kinase assays: PIP4K2B IC50
T1 construct: made in house; host or cells: E. coli
T1 sequence (P78356 1-416): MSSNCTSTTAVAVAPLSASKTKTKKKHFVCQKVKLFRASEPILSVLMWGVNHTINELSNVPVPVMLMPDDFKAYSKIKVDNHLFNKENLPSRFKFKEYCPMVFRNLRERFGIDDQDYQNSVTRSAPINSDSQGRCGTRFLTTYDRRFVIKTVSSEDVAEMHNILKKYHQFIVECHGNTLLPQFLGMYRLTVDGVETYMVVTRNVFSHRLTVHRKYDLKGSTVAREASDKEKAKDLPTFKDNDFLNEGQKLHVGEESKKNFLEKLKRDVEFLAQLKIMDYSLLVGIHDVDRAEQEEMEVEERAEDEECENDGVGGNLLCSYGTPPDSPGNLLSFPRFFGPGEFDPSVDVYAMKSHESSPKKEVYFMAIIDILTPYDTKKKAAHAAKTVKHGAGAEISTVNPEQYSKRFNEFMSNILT
Procedure, shortened: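 Purified GST-PIP4KIIB (5 nM final), 1 h preincubation with compound at 27 C, then 2 h reaction with 100 uM GTP and 80 uM PI5P plus DOPE carrier lipid in pH 7.3 HEPES/MgCl2/Triton buffer with 5% DMSO. GDP read by Transcreener FI fluorescence against a calibration curve; IC50 from % no-inhibitor activity vs log concentration.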

[1] = target: T2, PIP4K2A (full length protein, SignalChem) (Homo sapiens, UniProt P48426); test: Kinase Assay PIP4K2 A (Sprint); ADP-Glo biochemical assay; conditions: Table 2; compounds listed under IC50 range headings
T2 construct: 4 nM PIP4K2A (full length protein, SignalChem); purchased SignalChem
T2 sequence (P48426 1-406): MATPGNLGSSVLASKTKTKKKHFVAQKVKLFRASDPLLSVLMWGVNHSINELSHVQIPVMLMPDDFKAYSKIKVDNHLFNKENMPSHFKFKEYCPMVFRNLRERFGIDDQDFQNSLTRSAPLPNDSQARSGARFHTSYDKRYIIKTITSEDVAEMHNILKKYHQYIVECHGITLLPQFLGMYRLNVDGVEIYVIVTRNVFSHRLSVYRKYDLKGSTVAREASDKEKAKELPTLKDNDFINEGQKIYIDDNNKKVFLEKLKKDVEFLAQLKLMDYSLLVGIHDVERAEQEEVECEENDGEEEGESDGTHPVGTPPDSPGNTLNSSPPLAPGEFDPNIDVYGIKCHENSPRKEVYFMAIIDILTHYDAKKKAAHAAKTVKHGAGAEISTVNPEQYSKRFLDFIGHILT
Procedure, shortened: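 Compounds (10-point, 3-fold dilutions) were pre-incubated 15 min at RT with an enzyme/substrate mix of 4 nM full-length PIP4K2A and 100 μM PI(5)P diC8 in 20 mM MOPS pH 7.2, 25 mM MgCl2, 0.005% Tween 20. A 60 μM ATP solution was added, reaction 1 h RT; ADP read by ADP-Glo luminescence, IC50 fitted from % inhibition vs DMSO.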

GST tagged PIP4KtypeIIA = target: T3, GST tagged PIP4KtypeIIA (Homo sapiens, UniProt P48426); test: ADP-glo kinase assay PIP4K 2A (PIP4KtypeIIA inhibition assay); format: biochemical; conditions: Table 3; compounds listed under IC50 range headings; 10 uM ATP, 0.5 nM PIP4KIIA
T3 construct: made in house; host or cells: E. coli
T3 sequence (P48426 1-406): T2 sequence (P48426 1-406)
Procedure, shortened: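 E. coli-expressed GST-PIP4KtypeIIA (0.5 nM final) was preincubated 1 h at 27 °C with compound (up to 4.8 μM, 5% DMSO) in PI5P/DOPE lipid in 50 mM HEPES pH 7.3 with 10 mM MgCl2. The reaction was started with 10 μM ATP (final) and run 1 h. ADP was read by ADP-Glo luminescence via a calibration curve, and IC50 was taken from % residual activity.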

Row | SMILES | IC50 (GST tagged PIP4KtypeIIB) | IC50 [1] | IC50 (GST tagged PIP4KtypeIIA)
1 | CN(C)C(=O)c1ccc(-c2cc(-c3cc(N)ncn3)cnc2N)nc1 [Example 217, 2′-amino-5′-(6-aminopyrimidin-4-yl)-N,N-dimethyl-[2,3′-bipyridine]-5-carboxamide] | 100 to 1000 nM | 100 to 1000 nM | 100 to 1000 nM
2 | Cn1ncc2c(-c3cncc(-c4ccc(N5CCCC5=O)cc4)c3)ccnc21 [Example 218, 1-(4-(5-(1-methyl-1H-pyrazolo[3,4-b]pyridin-4-yl)pyridin-3-yl)phenyl)pyrrolidin-2-one] | 100 to 1000 nM | 5 to 100 nM | 100 to 1000 nM
3 | CN(C)C(=O)c1ccc(-c2cc(-c3cc(Nc4cccc(NC(=O)c5cccc(N)c5)c4)ncn3)cnc2N)nc1 [Example 219, 2′-amino-5′-(6-((3-(3-aminobenzamido)phenyl)amino)pyrimidin-4-yl)-N,N-dimethyl-[2,3′-bipyridine]-5-carboxamide] | 100 to 1000 nM | 100 to 1000 nM | 1000 to 2500 nM
4 | O=C1CCCN1c1ccc(-c2cncc(-c3ccnc4cn[nH]c34)c2)cc1 [Example 220, 1-(4-(5-(2H-pyrazolo[4,3-b]pyridin-7-yl)pyridin-3-yl)phenyl)pyrrolidin-2-one] | 100 to 1000 nM | 100 to 1000 nM | 100 to 1000 nM
5 | Nc1ncc(-c2ccnc3[nH]c(C(=O)NCc4ccccc4)cc23)cc1-c1ccc(C(=O)NCc2ccccc2)cn1 [Example 221, 4-(2′-amino-5-(benzylcarbamoyl)-[2,3′-bipyridin]-5′-yl)-N-benzyl-1H-pyrrolo[2,3-b]pyridine-2-carboxamide] | 1000 to 2500 nM | < 5000 nM | > 5000 nM
6 | O=C1CCCN1c1ccc(-c2cncc(-c3ncnc4n[nH]cc34)c2)cc1 [Example 223, 1-(4-(5-(2H-pyrazolo[3,4-d]pyrimidin-4-yl)pyridin-3-yl)phenyl)pyrrolidin-2-one] | 100 to 1000 nM | 100 to 1000 nM | 100 to 1000 nM
7 | O=C1CCCN1c1ccc(-c2cncc(-c3cc(Cl)nc4n[nH]cc34)c2)cc1 [Example 224, 1-(4-(5-(6-chloro-2H-pyrazolo[3,4-b]pyridin-4-yl)pyridin-3-yl)phenyl)pyrrolidin-2-one] | 10 to 100 nM | 5 to 100 nM | 10 to 100 nM
8 | Cc1nc(-c2cncc(-c3ccc(N4CCCC4=O)cc3)c2)c2cn[nH]c2n1 [Example 225, 1-(4-(5-(6-methyl-2H-pyrazolo[3,4-d]pyrimidin-4-yl)pyridin-3-yl)phenyl)pyrrolidin-2-one] | 100 to 1000 nM | 100 to 1000 nM | 100 to 1000 nM
9 | CN(C)C(=O)c1cnc2n[nH]c(-c3cncc(-c4ccc(N5CCCC5=O)cc4)c3)c2c1 [Example 227, N,N-dimethyl-3-(5-(4-(2-oxopyrrolidin-1-yl)phenyl)pyridin-3-yl)-2H-pyrazolo[3,4-b]pyridine-5-carboxamide] | 100 to 1000 nM | 5 to 100 nM | 100 to 1000 nM
10 | CN(C)C(=O)c1cnc2c(c1)c(-c1cncc(-c3ccc(N4CCCC4=O)cc3)c1)nn2C [Example 231, N,N,1-trimethyl-3-(5-(4-(2-oxopyrrolidin-1-yl)phenyl)pyridin-3-yl)-1H-pyrazolo[3,4-b]pyridine-5-carboxamide] | 1000 to 2500 nM | 100 to 1000 nM | 100 to 1000 nM
11 | CN(C)C(=O)c1cc2c(-c3cncc(-c4ccc(N5CCCC5=O)cc4)c3)ccnc2[nH]1 [Example 241, N,N-dimethyl-4-(5-(4-(2-oxopyrrolidin-1-yl)phenyl)pyridin-3-yl)-1H-pyrrolo[2,3-b]pyridine-2-carboxamide] | 10 to 100 nM | 5 to 100 nM | 10 to 100 nM
12 | Cn1ccc2c(-c3cncc(-c4ccc(N5CCCC5=O)cc4)c3)cn(C)c2c1=O [Example 243, 1,6-dimethyl-3-(5-(4-(2-oxopyrrolidin-1-yl)phenyl)pyridin-3-yl)-1,6-dihydro-7H-pyrrolo[2,3-c]pyridin-7-one] | 100 to 1000 nM | 100 to 1000 nM | 100 to 1000 nM
13 | Cc1c(-c2cncc(-c3ccc(N4CCCC4=O)cc3)c2)c2cc(C(=O)N(C)C)cnc2n1C [Example 249, N,N,1,2-tetramethyl-3-(5-(4-(2-oxopyrrolidin-1-yl)phenyl)pyridin-3-yl)-1H-pyrrolo[2,3-b]pyridine-5-carboxamide] | 100 to 1000 nM | 5 to 100 nM | 100 to 1000 nM
14 | Cc1[nH]c2ncc(C(=O)N(C)C)cc2c1-c1cncc(-c2ccc(N3CCCC3=O)cc2)c1 [Example 250, N,N,2-trimethyl-3-(5-(4-(2-oxopyrrolidin-1-yl)phenyl)pyridin-3-yl)-1H-pyrrolo[2,3-b]pyridine-5-carboxamide] | 100 to 1000 nM | 5 to 100 nM | 100 to 1000 nM
15 | COc1cc(-c2cncc(-c3ccc(N4CCCC4=O)cc3)c2)c2c[nH]nc2n1 [Example 257, 1-(4-(5-(6-methoxy-2H-pyrazolo[3,4-b]pyridin-4-yl)pyridin-3-yl)phenyl)pyrrolidin-2-one] | 100 to 1000 nM | 100 to 1000 nM | 100 to 1000 nM
16 | COc1ncc(-c2cnc(N)c(-c3ccc(N4CCCC4=O)cc3)c2)c2cn[nH]c12 [Example 258, 1-(4-(2-amino-5-(7-methoxy-2H-pyrazolo[3,4-c]pyridin-4-yl)pyridin-3-yl)phenyl)pyrrolidin-2-one] | 100 to 1000 nM | 5 to 100 nM | 100 to 1000 nM
17 | O=C1CCCN1c1ccc(-c2cncc(-c3cc(C4CC4)nc4n[nH]cc34)c2)cc1 [Example 267, 1-(4-(5-(6-cyclopropyl-2H-pyrazolo[3,4-b]pyridin-4-yl)pyridin-3-yl)phenyl)pyrrolidin-2-one] | 100 to 1000 nM | 5 to 100 nM | 100 to 1000 nM
18 | O=C1CCCN1c1ccc(-c2cncc(-c3c(OC4CCOCC4)cnc4[nH]ccc34)c2)cc1 [Example 268, 1-(4-(5-(5-((tetrahydro-2H-pyran-4-yl)oxy)-1H-pyrrolo[2,3-b]pyridin-4-yl)pyridin-3-yl)phenyl)pyrrolidin-2-one] | 1000 to 2500 nM | 1000 to 2500 nM | > 5000 nM
19 | COc1ncc(-c2cncc(-c3ccc(N4CCCC4=O)cc3)c2)c2c[nH]nc12 [Example 270, 1-(4-(5-(7-methoxy-2H-pyrazolo[3,4-c]pyridin-4-yl)pyridin-3-yl)phenyl)pyrrolidin-2-one] | 100 to 1000 nM | 5 to 100 nM | 100 to 1000 nM
20 | O=C1CCCN1c1ccc(-c2cncc(-c3cnc4nccn4c3)c2)cc1 [Example 275, 1-(4-(5-(imidazo[1,2-a]pyrimidin-6-yl)pyridin-3-yl)phenyl)pyrrolidin-2-one] | 2500 to 5000 nM | 100 to 1000 nM | 100 to 1000 nM
21 | O=C(NCc1ccc2c(c1)COB2O)c1cc2c(-c3cncc(-c4ccc(N5CCCC5=O)cc4)c3)ccnc2[nH]1 [Example 276, N-((1-hydroxy-1,3-dihydrobenzo[c][1,2]oxaborol-5-yl)methyl)-4-(5-(4-(2-oxopyrrolidin-1-yl)phenyl)pyridin-3-yl)-1H-pyrrolo[2,3-b]pyridine-2-carboxamide] | 10 to 100 nM | 5 to 100 nM | 100 to 1000 nM
22 | COC(=O)c1cc2c(-c3cncc(-c4ccc(N5CCCC5=O)cc4)c3)ccnc2[nH]1 [Example 302, methyl 4-(5-(4-(2-oxopyrrolidin-1-yl)phenyl)pyridin-3-yl)-1H-pyrrolo[2,3-b]pyridine-2-carboxylate] | 10 to 100 nM | 5 to 100 nM | 10 to 100 nM
23 | CN1CCn2c(cc3c(-c4cncc(-c5ccc(N6CCCCCC6=O)cc5)c4)ccnc32)C1=O [Example 345, 7-methyl-4-(5-(4-(2-oxoazepan-1-yl)phenyl)pyridin-3-yl)-8,9-dihydropyrido[3′,2′:4,5]pyrrolo[1,2-a]pyrazin-6(7H)-one] | 10 to 100 nM | 100 to 1000 nM | 100 to 1000 nM
